Series [1] relates to Staphylococcus epidermidis. Put plainly: Antibacterial activity against Staphylococcus epidermidis ATCC 12228 assessed as inhibition of bacterial growth at pH 7.4 incubated for 24 hrs by NCCLS protocol based method. Format: functional.
Series [2] can be described thus: Cytotoxicity against mouse RAW264.7 cells assessed as inhibition of cell growth at pH 6.5 measured after 24 hrs by MTT assay. Type of series: toxicity, cell-based. Background: Formazan colour is commonly taken as a measure of viable cells.
A short description of series [3]: Cytotoxicity against mouse RAW264.7 cells assessed as inhibition of cell growth at pH 7.4 measured after 24 hrs by MTT assay. Format: toxicity, cell-based.
Series [4] has as its system Escherichia coli. Kind of series: Antibacterial activity against Escherichia coli ATCC 25922 assessed as inhibition of bacterial growth at pH 7.4 incubated for 24 hrs by NCCLS protocol based method. Type of series: functional.
For series [5], the system named is Pseudomonas aeruginosa. Kind of series: Antibacterial activity against Pseudomonas aeruginosa ATCC 27853 assessed as inhibition of bacterial growth at pH 7.4 incubated for 24 hrs by NCCLS protocol based method. Format: functional.
The test system of series [6] is Salmonella typhimurium. Kind of series: Antibacterial activity against Salmonella enterica subsp. enterica serovar Typhimurium C77-31 assessed as inhibition of bacterial growth at pH 6.5 incubated for 24 hrs by NCCLS protocol based method. Format: functional.
Series [7] concerns Staphylococcus aureus. Kind of series: Antibacterial activity against Staphylococcus aureus ATCC 29213 assessed as inhibition of bacterial growth at pH 7.4 incubated for 24 hrs by NCCLS protocol based method. Format: functional.
Series [8] in a line: Hemolytic activity against human RBC assessed as hemoglobin release at pH 6.5 incubated for 1 hrs. The conditions noted are these: erythrocyte, pH 6.5, 1 h. Format: toxicity, cell-based.
Series [9] can be described thus: Hemolytic activity in human RBC assessed as hemoglobin release at pH 7.4 incubated for 1 hr. Format: toxicity, cell-based. The conditions noted are these: erythrocyte, pH 7.4, 1 h.
Series [10] has as its system Staphylococcus aureus. Kind of series: Antibacterial activity against methicillin-resistant Staphylococcus aureus ATCC 43300 assessed as inhibition of bacterial growth at pH 7.4 incubated for 24 hrs by NCCLS protocol based method. Format: functional.
Series [11] deals with Staphylococcus aureus. Kind of series: Antibacterial activity against Staphylococcus aureus ATCC 25923 assessed as inhibition of bacterial growth at pH 6.5 incubated for 24 hrs by NCCLS protocol based method. Format: functional.
Series [12] concerns Staphylococcus aureus. Kind of series: Antibacterial activity against methicillin-resistant Staphylococcus aureus ATCC 43300 assessed as inhibition of bacterial growth at pH 6.5 incubated for 24 hrs by NCCLS protocol based method. Type of series: functional.
Series [13] has as its system Pseudomonas aeruginosa. Put plainly: Antibacterial activity against Pseudomonas aeruginosa ATCC 27853 assessed as inhibition of bacterial growth at pH 6.5 incubated for 24 hrs by NCCLS protocol based method. Format: functional.
In series [14] the test system is Salmonella typhimurium. Put plainly: Antibacterial activity against Salmonella typhimurium ATCC 14028 assessed as inhibition of bacterial growth at pH 7.4 incubated for 24 hrs by NCCLS protocol based method. Type of series: functional, Salmonella enterica subsp. enterica serovar Typhimurium. The conditions noted are these: Salmonella enterica.
Series [15] has as its system Salmonella typhimurium. Put plainly: Antibacterial activity against Salmonella enterica subsp. enterica serovar Typhimurium C77-31 assessed as inhibition of bacterial growth at pH 7.4 incubated for 24 hrs by NCCLS protocol based method. Format: functional.
Series [16] relates to Escherichia coli. Put plainly: Antibacterial activity against Escherichia coli ATCC 25922 assessed as inhibition of bacterial growth at pH 6.5 incubated for 24 hrs by NCCLS protocol based method. Format: functional.
The test system of series [17] is Staphylococcus aureus. Put plainly: Antibacterial activity against Staphylococcus aureus ATCC 29213 assessed as inhibition of bacterial growth at pH 6.5 incubated for 24 hrs by NCCLS protocol based method. Format: functional.
Series [18] has as its system Staphylococcus aureus. Kind of series: Antibacterial activity against Staphylococcus aureus ATCC 25923 assessed as inhibition of bacterial growth at pH 7.4 incubated for 24 hrs by NCCLS protocol based method. Format: functional.
Series [19] has as its system Salmonella typhimurium. Put plainly: Antibacterial activity against Salmonella typhimurium ATCC 14028 assessed as inhibition of bacterial growth at pH 6.5 incubated for 24 hrs by NCCLS protocol based method. Type of series: functional, Salmonella enterica subsp. enterica serovar Typhimurium. The conditions noted are these: Salmonella enterica.
Series [20] has as its system Staphylococcus epidermidis. Put plainly: Antibacterial activity against Staphylococcus epidermidis ATCC 12228 assessed as inhibition of bacterial growth at pH 6.5 incubated for 24 hrs by NCCLS protocol based method. Type of series: functional.
Series [21] is described as follows: Ratio of MHC for hemolytic activity against human RBC assessed as hemoglobin release at pH 6.5 to MHC for hemolytic activity against human RBC assessed as hemoglobin release at pH 7.4. Type of series: toxicity, cell-based, Erythrocyte. The conditions noted are these: human red blood cells (RBC).

Bounds are passed on as bounds.

The results in this text go back to ChEMBL document CHEMBL5046301, “pH-Responsive Antimicrobial Peptide with Selective Killing Activity for Bacterial Abscess Therapy” (J Med Chem, 2022).

As usually defined, the MIC is the lowest concentration found to suppress growth. Broadly, the IC50 is the point on the concentration scale where inhibition reaches its midpoint. Turning to H-DLDHLIPHVIHGLVHAIHH-NH2, the MIC in [1], in [4], in series [5], in series [6], in series [7] and in [10] was greater than 64 µM throughout. Moreover, the MIC in [11] is greater than 64 µM; in series [12], greater than 64 µM; in series [13], greater than 64 µM; in series [14], greater than 64 µM; in series [15] it was greater than 64 µM; in [16], 32 µM. Also, the MIC in series [17], in series [18], in series [19] and in series [20] was greater than 64 µM throughout. Moreover, the IC50 at 24 h in series [2] and in [3] was greater than 128 µM each time. Also, the MHC10 in series [8] and in series [9] was greater than 128 µM throughout.

As to H-ELEHLIPHVIHGLVHAIHH-NH2, the MIC in series [1], in [4], in series [5], in [6], in [7] and in [10] was greater than 64 µM each time. The MIC in [11] is greater than 64 µM; in series [12], greater than 64 µM; in [13], greater than 64 µM; in series [14], greater than 64 µM; in series [15], greater than 64 µM; in [16] it was 32 µM. The minimal inhibitory concentration (MIC) in series [17], in [18], in [19] and in series [20] was greater than 64 µM each time. Further, the IC50 at 24 h in series [2] and in [3] was greater than 128 µM each time. For the same substance, the MHC10 in series [8] and in series [9] was greater than 128 µM throughout.

With H-FLDHLIPHVIHGLVHAIHH-NH2, the MIC in series [1] is greater than 64 µM; in [4], greater than 64 µM; in series [5], greater than 64 µM; in series [6], 16 µM; in series [7] it was greater than 64 µM; in series [10], greater than 64 µM. The MIC is greater than 64 µM in series [11]; greater than 64 µM in series [12]; 8 µM in series [13]; greater than 64 µM in [14]; greater than 64 µM in series [15]; 4 µM in series [16]. The MIC in series [17] is greater than 64 µM; in series [18], greater than 64 µM; in series [19], 16 µM; in series [20] it was greater than 64 µM. For the same substance, the IC50 at 24 h in [2] and in series [3] was 67.9 µM throughout. Besides, the MHC10 in series [8] and in series [9] was greater than 128 µM in each case.

H-FLFHLIPHVIHGLVHAIHH-NH2: the MIC in [1] amounted to 4 µM; in series [4], 4 µM; in [5], 64 µM; in series [6], 8 µM; in series [7], 4 µM; in series [10], 4 µM. In addition, the MIC in series [11] came to 2 µM; in series [12], 2 µM; in [13] it was 2 µM; in series [14], 64 µM; in series [15], 64 µM; in [16] it was 2 µM. For the same substance, the MIC in series [17] turned out to be 4 µM; in [18], 4 µM; in [19] it was 16 µM; in series [20], 2 µM. The IC50 at 24 h was 4.79 µM in series [2] and 12.3 µM in series [3]. Also, the selectivity ratio in series [21] stood at 0.5. Besides, the MHC10 was 8 µM in series [8] and 16 µM in series [9].

Turning to H-FLFHLIPHVIHGLVKAIRK-NH2, the MIC was 1 µM in [1]; 2 µM in series [4]; 4 µM in series [5]; 2 µM in [6]; 2 µM in series [7]; 2 µM in series [10]. Also, the MIC in series [11] worked out at 1 µM; in series [12], 1 µM; in [13] it was 1 µM; in series [14], 8 µM; in series [15], 4 µM; in [16] it was 1 µM. Besides, the MIC in series [17] worked out at 1 µM; in series [18] it was 2 µM; in series [19] it was 4 µM; in series [20], 1 µM. Further, the IC50 at 24 h in series [2] worked out at 3.15 µM; in series [3], 4.41 µM. The selectivity ratio in series [21] stood at 0.25. Besides, the values for the MHC10 in series [8] and in series [9] were 4 µM and 16 µM, respectively.

H-FLFKLIPKVIKGLVHAIHH-NH2: the MIC in series [1] amounted to 2 µM; in series [4], 4 µM; in series [5], 8 µM; in [6], 4 µM; in [7], 2 µM; in [10] it was 2 µM. Also, the MIC in [11] turned out to be 2 µM; in series [12], 2 µM; in series [13], 4 µM; in [14], 8 µM; in [15], 8 µM; in series [16], 4 µM. The MIC in series [17] worked out at 2 µM; in [18], 2 µM; in [19] it was 4 µM; in series [20], 2 µM. The IC50 at 24 h in [2] came out at 2.96 µM; in [3] it was 4.37 µM. The selectivity ratio in series [21] was found to be 0.5. In addition, the MHC10 in [8] worked out at 32 µM; in [9] it was 64 µM.

As for H-HLDHLIPHVIHGLVHAIHH-NH2, the MIC in series [1] is greater than 64 µM; in series [4] it was greater than 64 µM; in series [5], greater than 64 µM; in [6] it was 64 µM; in series [7], greater than 64 µM; in series [10] it was greater than 64 µM. Also, the MIC in series [11] is greater than 64 µM; in series [12] it was greater than 64 µM; in series [13] it was 32 µM; in series [14], greater than 64 µM; in series [15], greater than 64 µM; in [16], 8 µM. Further, the MIC in series [17] was greater than 64 µM; in series [18], greater than 64 µM; in series [19], 64 µM; in [20], greater than 64 µM. In addition, the IC50 at 24 h in [2] and in series [3] was greater than 128 µM each time. The MHC10 in series [8] and in series [9] was greater than 128 µM each time.

As for H-HLEHLIPHVIHGLVHAIHH-NH2, the MIC in [1], in [4], in series [5], in [6], in series [7] and in series [10] was greater than 64 µM each time. Further, the MIC in [11] is greater than 64 µM; in series [12], greater than 64 µM; in series [13], 32 µM; in series [14], greater than 64 µM; in series [15], greater than 64 µM; in series [16], 4 µM. For the same substance, the MIC is greater than 64 µM in series [17], greater than 64 µM in series [18], 64 µM in [19] and greater than 64 µM in series [20]. Also, the IC50 at 24 h in [2] and in series [3] was greater than 128 µM each time. For the same substance, the MHC10 in [8] and in [9] was greater than 128 µM in each case.

Consider H-HLHHLIPHVIHGLVHAIHH-NH2, for which the MIC in series [1] is 32 µM; in series [4], 16 µM; in [5], greater than 64 µM; in series [6] it was 2 µM; in series [7] it was greater than 64 µM; in series [10], 16 µM. Also, the MIC in series [11] was greater than 64 µM; in series [12], greater than 64 µM; in series [13], 8 µM; in series [14], 64 µM; in series [15], 64 µM; in [16] it was 2 µM. The MIC was greater than 64 µM in series [17], 32 µM in series [18], 8 µM in series [19] and greater than 64 µM in [20]. The IC50 at 24 h came to 58.3 µM in series [2] and 66 µM in series [3]. The MHC10 in [8] and in series [9] was greater than 128 µM in each case.
